Source: patent US20230135215A1, “COMPOUNDS AS CDK2/4/6 INHIBITORS” (Fochon Biosciences, Ltd., priority 2020, published 2023)

What was measured:
[1] = tested on: Hs68 cells; assay: Cell proliferation assay (MTS), Hs68 (CDK4/6 dependent) cells; type: cell-based; conditions: Homo sapiens, Hs68 (CDK4/6 dependent) cell proliferation inhibition, 120 h incubation, absorbance 490 nm
Description: (§1) MTS testing kit was purchased from Promega (Madison, Wis., USA). The RPMI-1640, DMEM, Fetal bovine serum and Penicillin-Streptomycin were purchased from BI (Biological Industries, Beit Haemek, Israel). Dimethyl sulfoxide (DMSO) was purchased from Sigma (St. Louis, Mo., USA).
(§2) To investigate whether a compound is able to inhibit the activity of CDK2/4/6 in cells, we developed a mechanism-based assay using HCC1806 (CDK4/6 independent) and Hs68 (CDK4/6 dependent) cell lines. In this assay, inhibition of CDK2/4/6 was detected by the cell proliferation inhibition of HCC1806 and Hs68 cells. HCC806 and HS68 cells cultured in PRMI-1640 and DMEM supplemented with 10% fetal bovine serum respectively to 40-80% confluence were collected and plated into 96-well plates at desired cell density of 5×10^3/mL. Plates were incubated at 37° C., with 5% CO2 for 24 h. Compounds were serially diluted and added to the plates with the final concentrations as 10000, 3333.3, 1111.1, 370.4, 123.5, 41.2, 13.7, 4.6 and 1.5 nM. Plates were incubated at 37° C., with 5% CO2 for 120 h. A mixture of 20 μl MTS/100 μl medium were added to each well and the plates were incubated at 37° C., with 5% CO2 for exactly 2 h. The absorbance was measured by a microplate reader at 490 nm. IC50 was calculated using GraphPad Prism 5.0 software.

[2] = tested on: HCC1806 cells; assay: Cell proliferation assay (MTS), HCC1806 (CDK4/6 independent) cells; type: cell-based; conditions: Homo sapiens, HCC1806 (CDK4/6 independent) cell proliferation inhibition, 120 h incubation, absorbance 490 nm
Description: as §1, §2

Row | Structure (SMILES) | IC50 [2] | IC50 [1]
1 | Cc1cc2cnc(NC3CCN(S(C)(=O)=O)CC3)nc2n(C2CCCC23CC3)c1=O (stereo not drawn) [Example 2, 6-Methyl-2-((1-(methylsulfonyl)piperidin-4-yl)amino)-8-(spiro[2,4]heptan-4-yl)pyrido[2,3-d]pyrimidin-7(8H)-one] |  | 322 nM
2 | CS(=O)(=O)N1CCC(Nc2ncc3cc(Cl)c(=O)n(C4CCCC45CC5)c3n2)CC1 (stereo not drawn) [Example 7, 6-Chloro-2-((1-(methylsulfonyl)piperidin-4-yl)amino)-8-(spiro[2,4]heptan-4-yl)pyrido[2,3-d]pyrimidin-7(8H)-one] | 308 nM | 233 nM
3 | CS(=O)(=O)N1CCC(Nc2ncc3cc(Br)c(=O)n(C4CCCC45CC5)c3n2)CC1 (stereo not drawn) [Example 8, 6-Bromo-2-((1-(methylsulfonyl)piperidin-4-yl)amino)-8-(spiro[2,4]heptan-4-yl)pyrido[2,3-d]pyrimidin-7(8H)-one] | 305 nM | 105 nM
4 | CS(=O)(=O)N1CCC(Nc2ncc3cc(C(F)F)c(=O)n(C4CCCC45CC5)c3n2)CC1 (stereo not drawn) [Example 18, 6-(difluoromethyl)-2-((1-(methylsulfonyl)piperidin-4-yl)amino)-8-(spiro[2.4]heptan-4-yl)pyrido[2,3-d]pyrimidin-7(8H)-one] | 233 nM | 
5 | CS(=O)(=O)N1CCC(Nc2ncc3cc(C(F)F)c(=O)n([C@@H]4CCCC45CC5)c3n2)CC1 [Example 19, (R)-6-(difluoromethyl)-2-((1-(methyl-sulfonyl)piperidin-4-yl)amino)-8-(spiro[2.4]heptan-4-yl)pyrido[2,3-d]pyrimidin-7(8H)-one] | 139 nM | 
6 | CS(=O)(=O)N1CCC(Nc2ncc3cc(C(F)F)c(=O)n([C@H]4CCCC45CC5)c3n2)CC1 [Example 20, (S)-6-(difluoromethyl)-2-((1-(methylsulfonyl)piperidin-4-yl)amino)-8-(spiro[2.4]heptan-4-yl)pyrido[2,3-d]pyrimidin-7(8H)-one] | 211 nM | 

The next lines start with results.

Row | IC50 [2] | Structure (SMILES) | IC50 [1]
7 | 379 nM | CS(=O)(=O)N1CCC(Nc2ncc3ccc(=O)n(C4CCCC45CC5)c3n2)CC1 (stereo not drawn) [Example 1, 2-((1-(Methylsulfonyl)piperidin-4-yl)amino)-8-(spiro[2,4]heptan-4-yl)pyrido[2,3-d]pyrimidin-7(8H)-one] | 318 nM
8 | 318 nM | CS(=O)(=O)N1CCC(Nc2ncc3cc(F)c(=O)n(C4CCCC45CC5)c3n2)CC1 (stereo not drawn) [Example 22, 6-fluoro-2-((1-(methylsulfonyl)piperidin-4-yl)amino)-8-(spiro[2.4]heptan-4-yl) pyrido[2,3-d]pyrimidin-7(8H)-one] | 
9 | 150 nM | CS(=O)(=O)N1CCC(Nc2ncc3ccc(=O)n([C@@H]4CCCC45CC5)c3n2)CC1 [Example 23, (R)-2-((1-(methylsulfonyl)piperidin-4-yl)amino)-8-(spiro[2.4]heptan-4-yl)pyrido[2,3-d]pyrimidin-7(8H)-one] | 489 nM
10 | 78 nM | CS(=O)(=O)N1CCC(Nc2ncc3ccc(=O)n([C@H]4CCCC45CC5)c3n2)CC1 [Example 24, (S)-2-((1-(methylsulfonyl)piperidin-4-yl)amino)-8-(spiro[2.4]heptan-4-yl)pyrido[2,3-d]pyrimidin-7(8H)-one] | 437 nM
11 | 409 nM | NS(=O)(=O)N1CCC(Nc2ncc3ccc(=O)n([C@H]4CCCC45CC5)c3n2)CC1 [Example 30, (S)-4-((7-oxo-8-(spiro[2.4]heptan-4-yl)-7,8-dihydropyrido[2,3-d]pyrimidin-2-yl)amino)piperidine-1-sulfonamide] | 
12 | 118 nM | CNS(=O)(=O)N1CCC(Nc2ncc3ccc(=O)n([C@H]4CCCC45CC5)c3n2)CC1 [Example 31, (S)-N-methyl-4-((7-oxo-8-(spiro[2.4]heptan-4-yl)-7,8-dihydropyrido[2,3-d]pyrimidin-2-yl)amino)piperidine-1-sulfonamide] | 418 nM
